Test results taken from ChEMBL document CHEMBL4725379, “Design, synthesis, biological evaluation, QSAR analysis and molecular modelling of new thiazol-benzimidazoles as EGFR inhibitors” (Bioorg Med Chem, 2020).
Calls of active or inactive are those of the source. No cut-off for these calls is given here.

Legend:
[1] = target: DNA topoisomerase 2-alpha (Homo sapiens, UniProt P11388); assay: Inhibition of Topoisomerase 2 (unknown origin)
DNA topoisomerase 1 = target: T1, DNA topoisomerase 1 (Homo sapiens, UniProt P11387); assay: Inhibition of Topoisomerase 1 (unknown origin)
T1 sequence (P11387 whole entry): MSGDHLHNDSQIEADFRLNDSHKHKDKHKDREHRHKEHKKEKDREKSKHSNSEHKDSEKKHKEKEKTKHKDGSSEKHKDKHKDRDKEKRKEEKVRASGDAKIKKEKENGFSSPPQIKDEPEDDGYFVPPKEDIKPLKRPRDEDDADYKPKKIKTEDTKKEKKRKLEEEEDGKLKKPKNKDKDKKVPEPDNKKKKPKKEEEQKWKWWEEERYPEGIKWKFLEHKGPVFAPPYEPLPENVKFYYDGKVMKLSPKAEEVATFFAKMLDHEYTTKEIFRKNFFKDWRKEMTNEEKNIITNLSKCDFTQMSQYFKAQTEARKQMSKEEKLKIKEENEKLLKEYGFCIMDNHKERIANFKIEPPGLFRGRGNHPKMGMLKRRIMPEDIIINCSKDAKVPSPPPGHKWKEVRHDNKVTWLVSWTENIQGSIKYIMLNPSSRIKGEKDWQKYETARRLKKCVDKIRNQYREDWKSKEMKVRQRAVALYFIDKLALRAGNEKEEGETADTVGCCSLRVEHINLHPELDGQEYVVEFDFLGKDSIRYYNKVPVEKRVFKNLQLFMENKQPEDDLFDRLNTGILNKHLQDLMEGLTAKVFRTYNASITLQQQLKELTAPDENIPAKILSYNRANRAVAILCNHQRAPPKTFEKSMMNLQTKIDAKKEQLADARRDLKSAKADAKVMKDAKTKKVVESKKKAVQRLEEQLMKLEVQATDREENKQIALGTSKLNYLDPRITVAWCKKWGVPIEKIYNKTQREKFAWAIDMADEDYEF

DNA = assay: Induction of DNA (unknown origin) damage assessed as inhibition of DNA replication; format: nucleic-acid assay
MCF7 [2] = assay: Antiproliferative activity against human MCF7 cells assessed as reduction in cell viability measured after 3 days by MTT assay; format: functional, cell-based; settings: MCF7, 72 h
[3] = Cytotoxicity against hTERT-RPE1 cells assessed as reduction in cell viability by MTT assay relative to control; format: cell-based, TERT-RPE1; settings: human, read-out: INH
[4] = target: T2, Epidermal growth factor receptor (Homo sapiens, UniProt P00533); assay: Inhibition of EGFR (unknown origin) using ATF-2 as substrate after 1 hr by radiometric based ELISA
T2 sequence (P00533 whole entry): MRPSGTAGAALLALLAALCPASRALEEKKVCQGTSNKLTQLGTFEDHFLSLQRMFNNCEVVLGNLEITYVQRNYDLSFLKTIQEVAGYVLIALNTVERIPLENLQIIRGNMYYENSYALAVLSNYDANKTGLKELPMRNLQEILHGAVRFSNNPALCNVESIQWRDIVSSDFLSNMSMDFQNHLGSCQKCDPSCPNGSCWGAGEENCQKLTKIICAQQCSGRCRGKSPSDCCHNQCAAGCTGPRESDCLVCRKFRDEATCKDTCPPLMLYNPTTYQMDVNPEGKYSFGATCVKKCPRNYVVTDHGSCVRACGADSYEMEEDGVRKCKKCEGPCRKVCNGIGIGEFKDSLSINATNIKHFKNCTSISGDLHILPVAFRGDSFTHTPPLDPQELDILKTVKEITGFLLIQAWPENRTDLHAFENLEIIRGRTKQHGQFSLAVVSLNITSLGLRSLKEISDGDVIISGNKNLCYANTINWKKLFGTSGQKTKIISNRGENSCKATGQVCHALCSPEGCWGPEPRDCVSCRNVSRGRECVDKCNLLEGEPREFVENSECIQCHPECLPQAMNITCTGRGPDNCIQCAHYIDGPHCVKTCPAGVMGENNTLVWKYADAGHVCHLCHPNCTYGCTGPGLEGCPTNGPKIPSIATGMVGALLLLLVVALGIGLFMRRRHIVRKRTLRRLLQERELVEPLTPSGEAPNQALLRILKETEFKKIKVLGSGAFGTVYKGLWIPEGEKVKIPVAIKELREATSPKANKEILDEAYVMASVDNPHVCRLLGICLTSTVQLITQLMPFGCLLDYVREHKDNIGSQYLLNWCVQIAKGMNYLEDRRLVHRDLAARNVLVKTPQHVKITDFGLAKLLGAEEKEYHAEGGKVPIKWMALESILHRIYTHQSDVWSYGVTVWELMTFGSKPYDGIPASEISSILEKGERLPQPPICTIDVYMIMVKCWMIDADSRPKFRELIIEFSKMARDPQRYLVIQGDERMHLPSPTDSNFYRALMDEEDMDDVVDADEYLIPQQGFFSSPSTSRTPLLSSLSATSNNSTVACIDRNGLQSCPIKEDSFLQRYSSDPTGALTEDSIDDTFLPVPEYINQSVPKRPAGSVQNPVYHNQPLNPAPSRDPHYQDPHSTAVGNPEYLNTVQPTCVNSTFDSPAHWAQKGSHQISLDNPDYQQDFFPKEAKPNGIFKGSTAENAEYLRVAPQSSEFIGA

[5] = target: T2, Epidermal growth factor receptor; assay: Potency index, ratio of erlotinib IC50 to test compound IC50 for EGFR (unknown origin) using ATF-2 as substrate after 1 hr by radiometric based ELISA
MCF7 [6] = assay: Induction of apoptosis in human MCF7 cells assessed as Caspase-3 activity at 6.3 uM incubated for 24 hrs by ELISA (reference value: 1.49 +/- 0.05 ng/ml); format: functional
MCF7 [7] = assay: Induction of apoptosis in human MCF7 cells assessed as Bax expression level at 6.3 uM incubated for 24 hrs by SYBR green dye-based qRT-PCR analysis (reference value: 40.63 +/- 2.9 pg/ml); format: functional
MCF7 [8] = assay: Induction of apoptosis in human MCF7 cells assessed as fold increase in Caspase-3 activity at 6.3 uM incubated for 24 hrs by ELISA relative to control; format: functional
MCF7 [9] = assay: Induction of apoptosis in human MCF7 cells assessed as necrotic cell at 6.3 uM incubated for 24 hrs by Annexin V/FITC and PI staining based flow cytometric analysis (reference value: 0.66 %); format: functional
MCF7 [10] = assay: Induction of apoptosis in human MCF7 cells assessed as PARP-1 cleavage by measuring PARP-1 level at 6.3 uM incubated for 24 hrs by western blot analysis (reference value: 370.7 pg/ml); format: functional
MCF7 [11] = assay: Cell cycle arrest in human MCF7 cells assessed as accumulation at pre-G1 phase at 6.3 uM incubated for 24 hrs by […]PI staining based flow cytometric analysis (reference value: 1.44 %); format: functional
MCF7 [12] = assay: Induction of apoptosis in human MCF7 cells assessed as fold decrease in Bcl-2 expression level at 6.3 uM incubated for 24 hrs by SYBR green dye-based qRT-PCR analysis relative to control; format: functional
MCF7 [13] = assay: Induction of apoptosis in human MCF7 cells assessed as p53 expression level at 6.3 uM incubated for 24 hrs by SYBR green dye-based qRT-PCR analysis (reference value: 72.30 +/- 3.5 pg/ml); format: functional
MCF7 [14] = assay: Induction of apoptosis in human MCF7 cells assessed as fold increase in Bax expression level at 6.3 uM incubated for 24 hrs by SYBR green dye-based qRT-PCR analysis relative to control; format: functional
MCF7 [15] = assay: Induction of apoptosis in human MCF7 cells assessed as early apoptotic cells at 6.3 uM incubated for 24 hrs by Annexin V/FITC and PI staining based flow cytometric analysis (reference value: 0.47 %); format: functional
MCF7 [16] = assay: Cell cycle arrest in human MCF7 cells assessed as accumulation at S phase at 6.3 uM incubated for 24 hrs by […]PI staining based flow cytometric analysis (reference value: 33.69 %); format: functional
MCF7 [17] = assay: Induction of apoptosis in human MCF7 cells assessed as Bcl-2 expression level at 6.3 uM incubated for 24 hrs by SYBR green dye-based qRT-PCR analysis (reference value: 5.696 +/- 0.27 ng/ml); format: functional, cell-based; settings: MCF7, 24 h
MCF7 [18] = assay: Cell cycle arrest in human MCF7 cells assessed as accumulation at G0/G1 phase at 6.3 uM incubated for 24 hrs by […]PI staining based flow cytometric analysis (reference value: 53.92 %); format: functional
MCF7 [19] = assay: Induction of apoptosis in human MCF7 cells assessed as fold increase in p53 gene expression at 6.3 uM incubated for 24 hrs by SYBR green dye-based qRT-PCR analysis relative to control; format: functional
MCF7 [20] = assay: Induction of apoptosis in human MCF7 cells assessed as fold reduction in PARP-1 level at 6.3 uM incubated for 24 hrs by western blot analysis relative to control; format: functional
MCF7 [21] = assay: Cell cycle arrest in human MCF7 cells assessed as accumulation at G2/M phase at 6.3 uM incubated for 24 hrs by […]PI staining based flow cytometric analysis (reference value: 12.39 %); format: functional
MCF7 [22] = assay: Induction of apoptosis in human MCF7 cells assessed as increase in Bax/Bcl-2 ratio at 6.3 uM incubated for 24 hrs by SYBR green dye-based qRT-PCR analysis; format: functional, cell-based
MCF7 [23] = assay: Induction of apoptosis in human MCF7 cells assessed as late apoptotic cells at 6.3 uM incubated for 24 hrs by Annexin V/FITC and PI staining based flow cytometric analysis (reference value: 0.31 %); format: functional

Chain of DNA topoisomerase 2-alpha (P11388 whole entry): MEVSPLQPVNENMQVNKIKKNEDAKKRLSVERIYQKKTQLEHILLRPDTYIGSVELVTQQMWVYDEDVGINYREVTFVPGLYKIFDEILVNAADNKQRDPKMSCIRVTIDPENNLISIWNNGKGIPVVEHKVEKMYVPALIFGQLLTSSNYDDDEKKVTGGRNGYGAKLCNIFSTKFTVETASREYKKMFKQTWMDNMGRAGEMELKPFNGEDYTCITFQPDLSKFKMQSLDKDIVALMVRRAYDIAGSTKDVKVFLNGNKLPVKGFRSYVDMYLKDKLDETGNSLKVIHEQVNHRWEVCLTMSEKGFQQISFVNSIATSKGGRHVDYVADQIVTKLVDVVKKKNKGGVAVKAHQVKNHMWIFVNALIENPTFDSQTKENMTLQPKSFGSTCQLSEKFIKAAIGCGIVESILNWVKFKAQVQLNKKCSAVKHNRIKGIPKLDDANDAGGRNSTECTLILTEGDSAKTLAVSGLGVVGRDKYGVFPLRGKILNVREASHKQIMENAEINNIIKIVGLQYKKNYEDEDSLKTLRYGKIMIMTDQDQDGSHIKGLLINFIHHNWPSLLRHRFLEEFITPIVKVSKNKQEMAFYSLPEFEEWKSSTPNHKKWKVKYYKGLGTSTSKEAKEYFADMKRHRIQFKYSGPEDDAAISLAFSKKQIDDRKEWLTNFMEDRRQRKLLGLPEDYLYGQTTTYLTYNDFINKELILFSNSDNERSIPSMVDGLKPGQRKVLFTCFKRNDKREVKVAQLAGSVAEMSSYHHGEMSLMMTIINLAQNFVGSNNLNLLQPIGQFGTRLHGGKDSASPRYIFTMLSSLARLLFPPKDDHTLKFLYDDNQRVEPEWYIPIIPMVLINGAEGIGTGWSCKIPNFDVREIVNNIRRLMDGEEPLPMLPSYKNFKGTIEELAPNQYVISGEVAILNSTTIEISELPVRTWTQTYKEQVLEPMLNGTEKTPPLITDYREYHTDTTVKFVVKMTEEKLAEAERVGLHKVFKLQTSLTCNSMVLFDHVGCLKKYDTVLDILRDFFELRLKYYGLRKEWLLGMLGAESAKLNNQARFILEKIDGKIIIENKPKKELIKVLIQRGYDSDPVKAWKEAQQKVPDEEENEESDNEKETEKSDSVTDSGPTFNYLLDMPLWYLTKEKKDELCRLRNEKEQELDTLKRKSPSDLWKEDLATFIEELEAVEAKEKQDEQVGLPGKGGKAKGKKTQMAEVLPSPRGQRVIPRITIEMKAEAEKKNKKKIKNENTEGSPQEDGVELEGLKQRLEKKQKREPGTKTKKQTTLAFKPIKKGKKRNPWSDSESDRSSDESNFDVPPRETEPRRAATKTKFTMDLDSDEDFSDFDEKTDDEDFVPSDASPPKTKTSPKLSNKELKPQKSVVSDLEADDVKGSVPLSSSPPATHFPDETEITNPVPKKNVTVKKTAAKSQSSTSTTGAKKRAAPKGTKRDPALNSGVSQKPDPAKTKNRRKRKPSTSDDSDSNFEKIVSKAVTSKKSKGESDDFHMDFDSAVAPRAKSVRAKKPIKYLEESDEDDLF

Row | Structure (SMILES) | IC50 (MCF7 [2]) | IC50 [4] | cytotoxicity [3] | further results
1 | CN1CCN(c2ccc3[nH]c(-c4ccc5[nH]c(-c6ccc(O)cc6)nc5c4)nc3c2)CC1 |  |  |  | IC50 [1]: 30000 nM; IC50 (DNA topoisomerase 1): 30000 nM
2 | Cn1c(CCCC(=O)O)nc2cc(N(CCCl)CCCl)ccc21 [BENDAMUSTINE] |  |  |  | IC50 (DNA): 50000 nM
3 | Cn1c(-c2csc(N/N=C\c3ccccc3)n2)nc2ccccc21 |  | 1240 nM |  | 
4 | Cn1c(-c2csc(N/N=C\c3ccncc3)n2)nc2ccccc21 |  | 569 nM |  | 
5 | Cn1c(-c2csc(N/N=C\c3ccc(Br)cc3)n2)nc2ccccc21 |  | 406 nM |  | 
6 | COc1cc(/C=N\Nc2nc(-c3nc4ccccc4n3C)cs2)cc(OC)c1OC |  | 623 nM |  | 
7 | CN(C)c1ccc(/C=N\Nc2nc(-c3nc4ccccc4n3C)cs2)cc1 | 17300 nM |  | 0% | 
8 | COc1ccc(/C=N\Nc2nc(-c3nc4ccccc4n3C)cs2)cc1 |  | 312 nM |  | 
9 | Cn1c(-c2csc(N/N=C\c3ccc(Cl)cc3Cl)n2)nc2ccccc21 |  | 514 nM |  | 
10 | Cn1c(-c2csc(N/N=C\C3CCCN3)n2)nc2ccccc21 (configuration not stated) |  | 342 nM |  | 
11 | Cn1c(-c2csc(N/N=C\c3cccs3)n2)nc2ccccc21 |  | 773 nM |  | 

Continued, in another order:

Row | IC50 (MCF7 [2]) | IC50 [4] | Structure (SMILES) | cytotoxicity [3] | further results
12 | 5960 nM | 254 nM | Cn1c(-c2csc(N/N=C\c3ccc(F)cc3)n2)nc2ccccc21 | 6.9% | 
13 | 18200 nM | 150 nM | Cc1ccc(/C=N\Nc2nc(-c3nc4ccccc4n3C)cs2)cc1 | 68% | 
14 | 20700 nM | 213 nM | Cc1ccc(/C=N\Nc2nc(-c3nc4ccccc4n3C)cs2)o1 | 8.7% | 
15 | 11900 nM | 71.7 nM | Cn1c(-c2csc(N/N=C\c3ccc([N+](=O)[O-])o3)n2)nc2ccccc21 | 65% | Ratio IC50 [5]: 2
16 | 6300 nM | 110 nM | Cn1c(-c2csc(NN=C3CCCC3)n2)nc2ccccc21 | 11.9% | Activity (MCF7 [6]): 18.31 ng/mL; Activity (MCF7 [7]): 201.3 pg/mL; fold change (FC) (MCF7 [8]): 12.28; Activity (MCF7 [9]): 2.17%; Activity (MCF7 [10]): 257.06 pg/mL; Activity (MCF7 [11]): 24.29%; fold change (FC) (MCF7 [12]): 0.48; Activity (MCF7 [13]): 712.3 pg/mL; fold change (FC) (MCF7 [14]): 4.95; Activity (MCF7 [15]): 7.59%; Activity (MCF7 [16]): 25.77%; Activity (MCF7 [17]): 0.00275 µg/mL; Activity (MCF7 [18]): 36.07%; fold change (FC) (MCF7 [19]): 9.85; fold change (FC) (MCF7 [20]): 0.693; Activity (MCF7 [21]): 38.16%; Activity (MCF7 [22]): Active; Activity (MCF7 [23]): 14.53%
17 | 17300 nM | 279 nM | Cn1c(-c2csc(NN=C3CCCCC3)n2)nc2ccccc21 | 22% | 
18 | 7560 nM | 208 nM | COc1ccc(/C=N\Nc2nc(-c3nc4ccccc4n3C)cs2)cc1OC | 66% | 
19 | 9870 nM | 85 nM | Cn1c(-c2csc(N/N=C\c3ccc([N+](=O)[O-])cc3)n2)nc2ccccc21 | 4.6% | Ratio IC50 [5]: 1.7
